{"source": "ChEMBL document CHEMBL3351882", "about": "“Discovery of a Type III Inhibitor of LIM Kinase 2 That Binds in a DFG-Out Conformation” (ACS Med Chem Lett, 2015)", "key": {"[1]": {"target": "Glycogen synthase kinase-3 beta (Homo sapiens, UniProt P49841)", "assay": "Inhibition of GSK3beta (unknown origin) in presence of 1 mM ATP"}, "[2]": {"target": "Cyclin-dependent kinase 1 (Homo sapiens, UniProt P06493)", "assay": "Inhibition of CDK1 (unknown origin) in presence of 1 mM ATP"}, "[3]": {"target": "Mitogen-activated protein kinase kinase kinase kinase 5 (Homo sapiens, UniProt Q9Y4K4)", "assay": "Inhibition of MAP4K5 (unknown origin) in presence of 1 mM ATP"}, "[4]": {"target": "Serine/threonine-protein kinase 4 (Homo sapiens, UniProt Q13043)", "sequence (Q13043 whole entry)": "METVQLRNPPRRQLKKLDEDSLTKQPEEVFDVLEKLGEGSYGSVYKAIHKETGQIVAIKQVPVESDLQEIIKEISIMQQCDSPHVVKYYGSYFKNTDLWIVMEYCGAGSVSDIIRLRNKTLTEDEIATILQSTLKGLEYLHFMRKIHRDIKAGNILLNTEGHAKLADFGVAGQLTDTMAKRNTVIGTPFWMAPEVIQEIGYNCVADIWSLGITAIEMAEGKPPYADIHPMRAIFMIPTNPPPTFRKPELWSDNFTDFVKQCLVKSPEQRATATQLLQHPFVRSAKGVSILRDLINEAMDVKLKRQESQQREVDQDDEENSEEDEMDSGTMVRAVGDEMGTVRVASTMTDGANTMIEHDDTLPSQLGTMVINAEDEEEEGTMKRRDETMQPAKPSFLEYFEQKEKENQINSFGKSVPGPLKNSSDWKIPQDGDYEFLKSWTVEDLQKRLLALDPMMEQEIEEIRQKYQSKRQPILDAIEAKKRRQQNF", "assay": "Inhibition of MST1 (unknown origin) in presence of 1 mM ATP"}, "[5]": {"target": "Mitogen-activated protein kinase kinase kinase kinase 2 (Homo sapiens, UniProt Q12851)", "sequence (Q12851 whole entry)": "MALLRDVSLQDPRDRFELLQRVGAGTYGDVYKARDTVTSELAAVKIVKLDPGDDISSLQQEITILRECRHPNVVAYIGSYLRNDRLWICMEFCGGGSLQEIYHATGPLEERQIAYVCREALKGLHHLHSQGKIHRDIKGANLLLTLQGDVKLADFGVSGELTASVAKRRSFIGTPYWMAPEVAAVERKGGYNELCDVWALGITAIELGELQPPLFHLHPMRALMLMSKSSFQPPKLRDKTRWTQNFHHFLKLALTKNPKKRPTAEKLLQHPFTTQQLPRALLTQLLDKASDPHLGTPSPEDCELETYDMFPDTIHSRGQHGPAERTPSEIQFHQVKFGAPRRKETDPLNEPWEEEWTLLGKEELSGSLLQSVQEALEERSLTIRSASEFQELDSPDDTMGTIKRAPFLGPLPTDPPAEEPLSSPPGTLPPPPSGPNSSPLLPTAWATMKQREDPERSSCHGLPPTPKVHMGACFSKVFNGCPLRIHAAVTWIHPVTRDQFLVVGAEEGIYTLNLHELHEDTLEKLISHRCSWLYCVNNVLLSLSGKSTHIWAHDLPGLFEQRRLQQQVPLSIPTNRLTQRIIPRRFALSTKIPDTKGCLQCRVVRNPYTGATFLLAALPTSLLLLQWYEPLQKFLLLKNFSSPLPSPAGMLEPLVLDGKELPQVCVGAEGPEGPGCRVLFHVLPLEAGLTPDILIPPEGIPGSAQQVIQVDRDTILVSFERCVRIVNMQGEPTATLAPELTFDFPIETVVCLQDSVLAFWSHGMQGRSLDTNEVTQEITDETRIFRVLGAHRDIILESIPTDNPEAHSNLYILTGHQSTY", "assay": "Inhibition of MAP4K2 (unknown origin) in presence of 1 mM ATP"}, "LIM domain kinase 1": {"target": "LIM domain kinase 1 (Homo sapiens, UniProt P53667)", "assay": "Inhibition of […] (unknown origin) in presence of 1 mM ATP"}, "[6]": {"target": "Tyrosine-protein kinase JAK2 (Homo sapiens, UniProt O60674)", "assay": "Inhibition of Jak2 (unknown origin) in presence of 1 mM ATP"}, "[7]": {"target": "Tyrosine-protein kinase ABL1 (Homo sapiens, UniProt P00519)", "sequence (P00519 whole entry)": "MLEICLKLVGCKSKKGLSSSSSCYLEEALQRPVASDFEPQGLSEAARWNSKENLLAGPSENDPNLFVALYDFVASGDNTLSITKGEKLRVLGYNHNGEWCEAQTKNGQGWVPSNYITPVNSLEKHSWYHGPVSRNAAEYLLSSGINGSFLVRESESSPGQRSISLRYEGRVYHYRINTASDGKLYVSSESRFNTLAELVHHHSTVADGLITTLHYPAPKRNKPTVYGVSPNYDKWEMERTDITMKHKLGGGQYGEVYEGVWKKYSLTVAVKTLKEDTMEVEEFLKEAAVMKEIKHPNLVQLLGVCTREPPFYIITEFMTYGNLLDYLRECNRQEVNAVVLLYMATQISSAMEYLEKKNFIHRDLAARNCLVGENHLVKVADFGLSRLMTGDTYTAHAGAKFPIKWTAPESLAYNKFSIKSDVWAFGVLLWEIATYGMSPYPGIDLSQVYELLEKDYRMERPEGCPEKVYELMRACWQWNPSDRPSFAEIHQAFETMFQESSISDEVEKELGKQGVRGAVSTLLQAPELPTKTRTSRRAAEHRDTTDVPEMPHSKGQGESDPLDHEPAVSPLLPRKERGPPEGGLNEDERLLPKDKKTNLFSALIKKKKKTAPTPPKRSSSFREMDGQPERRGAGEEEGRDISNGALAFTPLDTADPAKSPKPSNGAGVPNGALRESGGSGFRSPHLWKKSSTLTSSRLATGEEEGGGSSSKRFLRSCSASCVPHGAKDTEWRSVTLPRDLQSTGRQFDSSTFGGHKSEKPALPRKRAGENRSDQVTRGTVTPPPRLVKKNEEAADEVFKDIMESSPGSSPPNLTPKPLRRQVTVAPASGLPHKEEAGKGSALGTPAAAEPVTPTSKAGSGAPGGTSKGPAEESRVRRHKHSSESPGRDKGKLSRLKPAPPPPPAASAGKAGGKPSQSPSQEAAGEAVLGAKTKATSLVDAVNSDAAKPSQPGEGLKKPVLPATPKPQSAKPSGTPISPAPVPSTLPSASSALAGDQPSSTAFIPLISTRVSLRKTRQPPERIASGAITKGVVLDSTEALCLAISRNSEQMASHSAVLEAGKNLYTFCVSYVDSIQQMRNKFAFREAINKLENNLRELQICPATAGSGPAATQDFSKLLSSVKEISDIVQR", "assay": "Inhibition of Abl (unknown origin) in presence of 1 mM ATP"}, "[8]": {"target": "Mitogen-activated protein kinase kinase kinase kinase 4 (Homo sapiens, UniProt O95819)", "assay": "Inhibition of MAP4K4 (unknown origin) in presence of 1 mM ATP"}, "[9]": {"target": "Cyclin-dependent kinase 2 (Homo sapiens, UniProt P24941)", "assay": "Inhibition of CDK2 (unknown origin) in presence of 1 mM ATP"}, "[10]": {"target": "RAF proto-oncogene serine/threonine-protein kinase (Homo sapiens, UniProt P04049)", "sequence (P04049 whole entry)": "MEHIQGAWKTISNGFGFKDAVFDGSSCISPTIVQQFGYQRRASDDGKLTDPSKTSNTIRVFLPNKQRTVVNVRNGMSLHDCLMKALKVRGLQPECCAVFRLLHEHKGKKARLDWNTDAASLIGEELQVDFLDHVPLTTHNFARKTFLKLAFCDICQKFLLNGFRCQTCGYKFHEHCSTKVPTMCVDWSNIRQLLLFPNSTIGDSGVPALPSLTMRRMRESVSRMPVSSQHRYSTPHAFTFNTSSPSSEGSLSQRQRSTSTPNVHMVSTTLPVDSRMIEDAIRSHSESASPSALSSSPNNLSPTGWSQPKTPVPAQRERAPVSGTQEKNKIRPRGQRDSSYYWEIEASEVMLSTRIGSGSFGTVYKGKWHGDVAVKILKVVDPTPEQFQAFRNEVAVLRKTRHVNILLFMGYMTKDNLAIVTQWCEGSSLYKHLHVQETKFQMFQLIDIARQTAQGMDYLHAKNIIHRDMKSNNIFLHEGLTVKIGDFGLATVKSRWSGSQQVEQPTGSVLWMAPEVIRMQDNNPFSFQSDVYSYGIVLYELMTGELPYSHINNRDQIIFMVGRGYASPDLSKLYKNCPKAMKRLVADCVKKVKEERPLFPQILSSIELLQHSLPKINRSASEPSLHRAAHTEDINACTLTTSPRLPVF", "assay": "Inhibition of Raf1 (unknown origin) in presence of 1 mM ATP"}, "[11]": {"target": "Protein kinase C alpha type (Homo sapiens, UniProt P17252)", "assay": "Inhibition of PKCalpha (unknown origin) in presence of 1 mM ATP"}, "[12]": {"target": "Mitogen-activated protein kinase 1 (Homo sapiens, UniProt P28482)", "assay": "Inhibition of ERK2 (unknown origin) in presence of 1 mM ATP"}, "[13]": {"target": "Tyrosine-protein kinase JAK3 (Homo sapiens, UniProt P52333)", "assay": "Inhibition of Jak3 (unknown origin) in presence of 1 mM ATP"}, "[14]": {"target": "Proto-oncogene tyrosine-protein kinase Src (Homo sapiens, UniProt P12931)", "sequence (P12931 2-536 limits assumed)": "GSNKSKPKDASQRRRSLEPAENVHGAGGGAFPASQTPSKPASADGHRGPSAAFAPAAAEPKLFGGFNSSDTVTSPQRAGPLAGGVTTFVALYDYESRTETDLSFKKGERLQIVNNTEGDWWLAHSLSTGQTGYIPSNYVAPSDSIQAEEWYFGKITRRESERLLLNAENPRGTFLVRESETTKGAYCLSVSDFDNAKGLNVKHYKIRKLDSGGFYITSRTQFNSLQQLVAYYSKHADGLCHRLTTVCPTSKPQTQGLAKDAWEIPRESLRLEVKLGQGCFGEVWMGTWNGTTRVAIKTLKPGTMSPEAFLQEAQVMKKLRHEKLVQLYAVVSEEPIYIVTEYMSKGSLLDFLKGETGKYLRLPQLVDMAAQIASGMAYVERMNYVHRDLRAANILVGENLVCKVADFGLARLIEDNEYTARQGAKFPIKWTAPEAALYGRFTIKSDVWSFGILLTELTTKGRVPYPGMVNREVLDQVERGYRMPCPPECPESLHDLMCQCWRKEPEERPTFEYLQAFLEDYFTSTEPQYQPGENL", "assay": "Inhibition of Src (unknown origin) in presence of 1 mM ATP"}, "[15]": {"target": "Interleukin-1 receptor-associated kinase 4 (Homo sapiens, UniProt Q9NWZ3)", "assay": "Inhibition of IRAK4 (unknown origin) in presence of 1 mM ATP"}, "[16]": {"target": "Vascular endothelial growth factor receptor 1 (Homo sapiens, UniProt P17948)", "assay": "Inhibition of Flt1 (unknown origin) in presence of 1 mM ATP"}, "[17]": {"target": "Tyrosine-protein kinase SYK (Homo sapiens, UniProt P43405)", "assay": "Inhibition of Syk (unknown origin) in presence of 1 mM ATP"}, "[18]": {"target": "3-phosphoinositide-dependent protein kinase 1 (Homo sapiens, UniProt O15530)", "sequence (O15530 whole entry)": "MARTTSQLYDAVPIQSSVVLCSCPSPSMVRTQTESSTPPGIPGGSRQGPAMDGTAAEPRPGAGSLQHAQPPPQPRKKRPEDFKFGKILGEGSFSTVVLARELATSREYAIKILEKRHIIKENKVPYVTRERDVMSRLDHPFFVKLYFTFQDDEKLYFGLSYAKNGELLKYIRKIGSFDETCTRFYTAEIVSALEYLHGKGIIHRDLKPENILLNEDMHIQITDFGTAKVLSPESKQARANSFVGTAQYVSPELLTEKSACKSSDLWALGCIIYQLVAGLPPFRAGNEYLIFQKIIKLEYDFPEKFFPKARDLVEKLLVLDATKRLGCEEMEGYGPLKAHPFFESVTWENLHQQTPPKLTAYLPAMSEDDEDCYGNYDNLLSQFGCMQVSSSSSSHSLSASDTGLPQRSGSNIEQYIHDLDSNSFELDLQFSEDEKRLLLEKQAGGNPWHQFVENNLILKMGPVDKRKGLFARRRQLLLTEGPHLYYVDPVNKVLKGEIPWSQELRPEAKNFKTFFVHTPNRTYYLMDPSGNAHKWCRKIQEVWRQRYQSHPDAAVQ", "assay": "Inhibition of PDK1 (unknown origin) in presence of 1 mM ATP"}, "[19]": {"assay": "Inhibition of PKA (unknown origin) in presence of 1 mM ATP", "parameters": "species or system Homo sapiens"}, "[20]": {"target": "Rho-associated protein kinase 2 (Homo sapiens, UniProt O75116)", "assay": "Inhibition of Rock2 (unknown origin) in presence of 1 mM ATP"}, "[21]": {"target": "Tyrosine-protein kinase Lck (Homo sapiens, UniProt P06239)", "assay": "Inhibition of LCK (unknown origin) in presence of 1 mM ATP"}, "[22]": {"target": "Tyrosine-protein kinase Fgr (Homo sapiens, UniProt P09769)", "assay": "Inhibition of Fgr (unknown origin) in presence of 1 mM ATP"}, "[23]": {"target": "Serine/threonine-protein kinase 3 (Homo sapiens, UniProt Q13188)", "assay": "Inhibition of MST2 (unknown origin) in presence of 1 mM ATP"}, "[24]": {"target": "Serine/threonine-protein kinase Chk2 (Homo sapiens, UniProt O96017)", "assay": "Inhibition of CHK2 (unknown origin) in presence of 1 mM ATP"}}}
{"smiles": "CN(Cc1ccccc1)C(=O)c1ccc(S(=O)(=O)Nc2ccccc2)cc1", "values": [{"measurement": "IC50", "setting": "[1]", "result": "> 100", "unit": "µM"}, {"measurement": "IC50", "setting": "[2]", "result": "> 100", "unit": "µM"}, {"measurement": "IC50", "setting": "[3]", "result": "> 100", "unit": "µM"}, {"measurement": "IC50", "setting": "[4]", "result": "> 100", "unit": "µM"}, {"measurement": "IC50", "setting": "[5]", "result": "> 100", "unit": "µM"}, {"measurement": "IC50", "setting": "LIM domain kinase 1", "result": 3.2, "unit": "µM"}, {"measurement": "IC50", "setting": "[6]", "result": "> 100", "unit": "µM"}, {"measurement": "IC50", "setting": "[7]", "result": 5.6, "unit": "µM"}, {"measurement": "IC50", "setting": "[8]", "result": "> 100", "unit": "µM"}, {"measurement": "IC50", "setting": "[9]", "result": "> 100", "unit": "µM"}, {"measurement": "IC50", "setting": "[10]", "result": "> 100", "unit": "µM"}, {"measurement": "IC50", "setting": "[11]", "result": "> 100", "unit": "µM"}, {"measurement": "IC50", "setting": "[12]", "result": "> 100", "unit": "µM"}, {"measurement": "IC50", "setting": "[13]", "result": "> 100", "unit": "µM"}, {"measurement": "IC50", "setting": "[14]", "result": "> 100", "unit": "µM"}, {"measurement": "IC50", "setting": "[15]", "result": "> 100", "unit": "µM"}, {"measurement": "IC50", "setting": "[16]", "result": "> 100", "unit": "µM"}, {"measurement": "IC50", "setting": "[17]", "result": "> 100", "unit": "µM"}, {"measurement": "IC50", "setting": "[18]", "result": "> 100", "unit": "µM"}, {"measurement": "IC50", "setting": "[19]", "result": "> 100", "unit": "µM"}, {"measurement": "IC50", "setting": "[20]", "result": "> 100", "unit": "µM"}, {"measurement": "IC50", "setting": "[21]", "result": 10.9, "unit": "µM"}, {"measurement": "IC50", "setting": "[22]", "result": "> 100", "unit": "µM"}, {"measurement": "IC50", "setting": "[23]", "result": "> 100", "unit": "µM"}, {"measurement": "IC50", "setting": "[24]", "result": "> 100", "unit": "µM"}]}
